Laboratory results published in US20240228506A1, “RIPK1 INHIBITORS AND METHODS OF USE” (Merck Sharp & Dohme LLC, priority 2021, published 2024).

What follows are compounds tested against T1, GST-RIPK1 (recombinant GST-RIPK1 kinase domain (residues 1-327)) (Homo sapiens, UniProt Q13546) (assay: RIPK1-ADP-Glo enzymatic assay). Settings: 25 nM GST-RIPK1, 300 μM ATP, 3 μM dephosphorylated-MBP; 30 minutes pre-incubation, 150 minutes reaction; ten-point titration.
T1 construct: recombinant GST-RIPK1 kinase domain (residues 1-327) enzyme; made in house; host or cells: baculovirus-transfected Sf21 insect cells
T1 sequence (Q13546 1-327): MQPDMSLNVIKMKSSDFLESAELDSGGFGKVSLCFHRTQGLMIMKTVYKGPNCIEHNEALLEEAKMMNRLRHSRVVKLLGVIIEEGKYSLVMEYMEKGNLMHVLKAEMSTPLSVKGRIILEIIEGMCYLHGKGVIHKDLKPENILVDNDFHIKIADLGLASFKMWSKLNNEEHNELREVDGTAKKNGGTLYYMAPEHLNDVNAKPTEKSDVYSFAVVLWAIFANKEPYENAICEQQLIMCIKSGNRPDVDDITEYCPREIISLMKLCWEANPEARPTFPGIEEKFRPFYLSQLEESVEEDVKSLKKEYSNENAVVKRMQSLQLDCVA
Format: biochemical
In short: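 Ten-point 1:3 titrations from 100000 nM, 1% DMSO, were preincubated 30 min with 25 nM GST-RIPK1 (1-327) before starting with 300 μM ATP plus 3 μM dephosphorylated MBP; 150 min reaction. ADP-Glo luminescence measured ATP-to-ADP conversion; EC50 by four-parameter sigmoidal regression.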

| IC50 | Structure (SMILES) |
| --- | --- |
| 22 nM | O=C(N1C[C@@H]2C[C@H]1c1cncc(C#Cc3ccc(F)cc3F)c1O2)C12CCC(C(F)(F)F)(CC1)C2 [Compound 2-59, ((2S,5S)-9-((2,4-difluorophenyl)ethynyl)-2,3-dihydro-2,5-methanopyrido[3,4-f][1,4]oxazepin-4(5H)-yl)(4-(trifluoromethyl)bicyclo[2.2.1]heptan-1-yl)methanone] |
| 47 nM | Cc1ncc2c(c1F)O[C@H]1C[C@@H]2N(C(=O)C23CCC(C(F)(F)F)(CC2)C3)C1 [Compound 2-27, ((2S,5S)-9-Fluoro-8-methyl-2,3-dihydro-2,5-methanopyrido[3,4-f][1,4]oxazepin-4(5H)-yl)(4-(trifluoromethyl)bicyclo[2.2.1]heptan-1-yl)methanone] |
| 43 nM | CCC(C)(C#N)C(=O)N1C[C@@H]2C[C@H]1c1cncc(C#N)c1S2 (single isomer, unassigned) [Compound 4-10, (2S,5S)-4-(2-(R or S)-cyano-2-methylbutanoyl)-2,3,4,5-tetrahydro-2,5-methanopyrido[3,4-f][1,4]thiazepine-9-carbonitrile] |
| 38 nM | C#Cc1cncc2c1O[C@H]1C[C@@H]2N(C(=O)C23CCC(C(F)(F)F)(CC2)C3)C1 [Compound 2-33, ((2S,5S)-9-ethynyl-2,3-dihydro-2,5-methanopyrido[3,4-f][1,4]oxazepin-4(5H)-yl)(4-(trifluoromethyl)bicyclo [2.2.1]heptan-1-yl)methanone] |
| 252 nM | CCC(C)(C#N)C(=O)N1C[C@@H]2C[C@H]1c1cncc(C#N)c1O2 (single isomer, unassigned) [Compound 1-112, (2S,5S)-4-(2-(R or S)-cyano-2-methylbutanoyl)-2,3,4,5-tetrahydro-2,5-methanopyrido[3,4-f][1,4]oxazepine-9-carbonitrile] |
| 42 nM | CC(C)(C(=O)N1C[C@@H]2C[C@H]1c1cncc(C#Cc3cccc(F)c3)c1O2)C(F)F [Compound 2-42, 3,3-difluoro-1-((2S,5S)-9-((3-fluorophenyl)ethynyl)-2,3-dihydro-2,5-methanopyrido[3,4-f][1,4]oxazepin-4(5H)-yl)-2,2-dimethylpropan-1-one] |
| 96 nM | CC(C(=O)N1C[C@@H]2C[C@H]1c1cncc(C#N)c1O2)(C(F)F)C1CC1 (single isomer, unassigned) [Compound 1-88, (2S,5S)-4-(2-(R or S)-cyclopropyl-3,3-difluoro-2-methylpropanoyl)-2,3,4,5-tetrahydro-2,5-methanopyrido[3,4-f][1,4]oxazepine-9-carbonitrile] |
| 32 nM | CC(C)(C(=O)N1C[C@@H]2C[C@H]1c1cncc(C#N)c1O2)C(F)F [Compound 1-1, (2S,5S)-4-(3,3-difluoro-2,2-dimethylpropanoyl)-2,3,4,5-tetrahydro-2,5-methanopyrido[3,4-f][1,4]oxazepine-9-carbonitrile] |
| 26 nM | Cn1cncc1C#Cc1cncc2c1O[C@H]1C[C@@H]2N(C(=O)C23CCC(C(F)(F)F)(CC2)C3)C1 [Compound 2-55, ((2S,5S)-9-((1-methyl-1H-imidazol-5-yl)ethynyl)-2,3-dihydro-2,5-methanopyrido[3,4-f][1,4]oxazepin-4(5H)-yl)(4-(trifluoromethyl)bicyclo [2.2.1]heptan-1-yl)methanone] |
| 35 nM | N#Cc1cncc2c1O[C@H]1C[C@@H]2N(C(=O)C2(F)CCN(c3cc(-c4ccccc4)ncn3)CC2)C1 [Compound 1-70, (2S,5S)-4-(4-fluoro-1-(6-phenylpyrimidin-4-yl)piperidine-4-carbonyl)-2,3,4,5-tetrahydro-2,5-methanopyrido[3,4-f][1,4]oxazepine-9-carbonitrile] |
| 313 nM | N#Cc1cncc2c1O[C@H]1C[C@@H]2N(C(=O)C23CCC(CC2)OC3)C1 [Compound 1-26, (2S,5S)-4-(2-oxabicyclo[2.2.2]octane-4-carbonyl)-2,3,4,5-tetrahydro-2,5-methanopyrido[3,4-f][1,4]oxazepine-9-carbonitrile] |
